Laboratory results from US10100045B2, “3-aryl-2H-pyrazolo[4,3-b]pyridine compounds and their use as AMPA receptor modulators” (Janssen Pharmaceutica NV, priority 2016, dated 2018).

The molecules below were run against GluA1o-γ8 (GRIA1o-CACNG8 fusion construct; TARP γ8 dependent AMPA receptor) (Homo sapiens (Human), UniProt P42261+Q8WXS5) (assay: Calcium flux assay (FLIPR), inhibition of glutamate response of GluA1o-γ8 channel). Details: HEK293 cells stably expressing GRIA1o-CACNG8 fusion; 15 μM glutamate; negative log of the IC50 in molar.
GluA1o-γ8 (GRIA1o-CACNG8 fusion construct; TARP γ8 dependent AMPA receptor), sequence (P42261 other isoform, or with tags, fused parts or gaps): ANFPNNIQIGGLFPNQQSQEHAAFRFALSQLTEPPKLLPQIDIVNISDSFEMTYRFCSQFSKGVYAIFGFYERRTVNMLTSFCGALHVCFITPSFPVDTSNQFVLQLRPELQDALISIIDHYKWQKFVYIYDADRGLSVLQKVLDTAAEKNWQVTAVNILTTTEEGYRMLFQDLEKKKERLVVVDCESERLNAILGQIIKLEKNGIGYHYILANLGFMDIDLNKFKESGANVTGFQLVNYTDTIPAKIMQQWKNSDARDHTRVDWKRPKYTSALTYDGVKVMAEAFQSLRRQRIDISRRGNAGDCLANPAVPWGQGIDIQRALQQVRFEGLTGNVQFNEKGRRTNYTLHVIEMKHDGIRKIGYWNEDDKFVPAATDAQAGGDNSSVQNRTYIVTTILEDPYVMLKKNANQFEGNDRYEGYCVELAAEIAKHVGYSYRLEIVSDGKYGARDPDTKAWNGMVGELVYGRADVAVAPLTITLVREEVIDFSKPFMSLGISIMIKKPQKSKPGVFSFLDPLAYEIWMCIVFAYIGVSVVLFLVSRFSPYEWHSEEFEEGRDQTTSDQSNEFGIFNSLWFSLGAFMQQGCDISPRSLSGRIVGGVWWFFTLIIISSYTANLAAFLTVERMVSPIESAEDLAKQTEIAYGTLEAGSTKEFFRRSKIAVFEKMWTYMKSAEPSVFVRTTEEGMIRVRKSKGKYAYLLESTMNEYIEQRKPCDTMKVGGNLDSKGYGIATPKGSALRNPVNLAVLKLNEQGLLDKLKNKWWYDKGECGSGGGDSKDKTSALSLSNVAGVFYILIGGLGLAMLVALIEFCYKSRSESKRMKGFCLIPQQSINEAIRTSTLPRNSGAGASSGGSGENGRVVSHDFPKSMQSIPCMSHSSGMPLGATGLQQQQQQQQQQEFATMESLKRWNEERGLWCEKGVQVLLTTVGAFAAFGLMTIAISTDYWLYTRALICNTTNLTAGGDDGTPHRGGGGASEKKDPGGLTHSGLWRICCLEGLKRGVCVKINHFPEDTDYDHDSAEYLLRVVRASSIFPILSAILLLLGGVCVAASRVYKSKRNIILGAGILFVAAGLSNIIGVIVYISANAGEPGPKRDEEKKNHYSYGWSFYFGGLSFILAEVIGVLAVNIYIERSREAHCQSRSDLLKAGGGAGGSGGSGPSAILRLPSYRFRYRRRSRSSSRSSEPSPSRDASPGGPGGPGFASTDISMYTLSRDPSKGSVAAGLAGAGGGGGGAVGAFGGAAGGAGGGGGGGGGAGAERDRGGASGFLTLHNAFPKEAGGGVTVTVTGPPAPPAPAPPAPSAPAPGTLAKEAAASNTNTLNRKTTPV
Format: cell-based
Description: This assay was used to test compounds for their ability to inhibit TARP γ8 dependent AMPA receptor activity. The AMPA receptor is a non-selective cation channel activated by glutamate. Ionotropic glutamate receptors normally desensitize too rapidly to allow detectable calcium influx in a FLIPR assay (Strange et al. (2006). “Functional characterisation of homomeric ionotropic glutamate receptors GluR1-GluR6 in a fluorescence-based high throughput screening assay.” Comb Chem High Throughput Screen 9(2): 147-158). But, this desensitization is incomplete, and a substantial steady-state current remains in the sustained presence of glutamate (Cho et al. (2007). “Two families of TARP isoforms that have distinct effects on the kinetic properties of AMPA receptors and synaptic currents.” Neuron 55(6): 890-904). An in vitro assay was used to determine the potency of test compounds as inhibitors of the glutamate response of the channel formed by GluA1o-γ8. To ensure a 1:1 stoichiometry of GluA1o and γ8 subunits in the expressed channel, a fusion of the cDNAs for GRIA1o and CACNG8 was used. Following Shi et al (2009) “The stoichiometry of AMPA receptors and TARPs varies by neuronal cell type.” Neuron 62(5): 633-640), the C-terminus of the cDNA for GRIA1o was fused to the N-terminus of the cDNA for γ8. The linker sequence was QQQQQQQQQQEFAT. Channels expressed with this construct appear to have similar properties to channels formed by co-expression of GRIA1o with an excess of CACNG8 (Shi et al. 2009). A clonal cell line in HEK293 cells stably expressing this construct, with a geneticin selection marker, was generated for use in this assay.
Cell expressing the GRIA1o-CACNG8 fusion construct were grown in a monolayer in 96- or 384-well microtiter plates. They were washed with assay buffer (135 mM NaCl, 4 mM KCl, 3 mM CaCl2, 1 mM MgCl2, 5 mM glucose, 10 mM HEPES, pH 7.4, 300 mOs) using a Biotek EL405 plate washer. The cells were then loaded with a calcium-sensitive dye (Calcium-5 or Calcium-6, Molecular Devices) and the test compounds at a range of concentrations. Calcium flux following the addition of 15 μM glutamate was monitored using a Molecular Devices FLIPR Tetra. The fluorescence in each well was normalized to the fluorescence of negative and positive control wells. The negative control wells had no added compounds, and the positive control wells had been incubated with 10 μM CP465022 (a non-subtype-selective AMPA receptor antagonist) (Lazzaro et al. (2002). “Functional characterization of CP-465,022, a selective, noncompetitive AMPA receptor antagonist.” Neuropharmacology 42(2): 143-153). The responses to glutamate as functions of the test compound concentrations were fitted to a four-parameter logistic function. The fitted parameter corresponding to the midpoint was taken to be the potency of inhibition of the compound. The data in Table 3 below illustrates the observed potentcy for the compounds described herein. pIC50 refers to the negative log of the IC50 in molar.

pIC50 | Structure (SMILES)
8.6 | O=C1Cc2cc(-c3c4nc(C(F)(F)F)ccc4nn3C(F)F)cc(Cl)c2N1 [Example 29, 7-Chloro-5-(2-(difluoromethyl)-5-(trifluoromethyl)-2H-pyrazolo[4,3-b]pyridin-3-yl)indolin-2-one]
9.2 | FC(F)(F)c1ccc2nn(C3CCC3)c(-c3ccc4[nH]ncc4c3)c2n1 [Example 12, 2-Cyclobutyl-3-(1H-indazol-5-yl)-5-(trifluoromethyl)-2H-pyrazolo[4,3-b]pyridine]
10.7 | FC(F)(F)c1ccc2nn(C3CCC3)c(-c3cc(Cl)c4[nH]ncc4c3)c2n1 [Example 28, 3-(7-Chloro-1H-indazol-5-yl)-2-cyclobutyl-5-(trifluoromethyl)-2H-pyrazolo[4,3-b]pyridine]
8.2 | O=C1Cc2cc(-c3c4nc(C(F)(F)F)ccc4nn3-c3ccccc3)ccc2N1 [Example 10, 5-(2-Phenyl-5-(trifluoromethyl)-2H-pyrazolo[4,3-b]pyridin-3-yl)indolin-2-one]
7.0 | CCn1nc2ccc(C(F)(F)F)nc2c1-c1ccc2[nH]c(=O)[nH]c2c1 [Example 4, 5-(2-Ethyl-5-(trifluoromethyl)-2H-pyrazolo[4,3-b]pyridin-3-yl)-1,3-dihydro-2H-benzo[d]imidazol-2-one]
9.4 | Cc1cc(-c2c3nc(C(F)(F)F)ccc3nn2C(C)C)cc2c1NC(=O)C2 [Example 21, 5-(2-Isopropyl-5-(trifluoromethyl)-2H-pyrazolo[4,3-b]pyridin-3-yl)-7-methylindolin-2-one]
6.5 | Cn1nc2ccc(C(F)(F)F)nc2c1-c1ccc2[nH]c(=O)[nH]c2c1 [Example 1, 5-(2-Methyl-5-(trifluoromethyl)-2H-pyrazolo[4,3-b]pyridin-3-yl)-1,3-dihydro-2H-benzo[d]imidazol-2-one]
